Experimental data published in patent publication US5854039A, “Transformation of pichia methanolica” (ZymoGenetics, Inc., priority 1997, dated 1998).

Tested on: P. methanolica cells (strain CBS6515), UV-mutagenized
Experiment: Nystatin enrichment for auxotrophic mutants, titering for colony forming units
Type: cell-based, Pichia methanolica
Details: 1 mg nystatin added to remainder of 500 ml culture in minimal broth, one additional hour with shaking, nystatin-treated versus control cells
Protocol: Large-scale mutagenesis was then carried out using a 2-second UV exposure to provide about 20% killing. Cells were plated at approximately 10^4 cells/plate onto eight YEPD plates that were supplemented with 100 mg/L each of uracil, adenine, and leucine, which were added to supplement the growth of potential auxotrophs having the cognate deficiencies. Following UV exposure the plates were wrapped in foil and incubated overnight at 30° C. The following day the colonies on the plates (~10^5 total) were resuspended in water and washed once with water. An amount of cell suspension sufficient to give an OD600 of 0.1-0.2 was used to inoculate 500 ml of minimal broth made with yeast nitrogen base without amino acids or ammonia, supplemented with 1% glucose and 400 μg/L biotin. The culture was placed in a 2.8 L baffled Bell flask and shaken vigorously overnight at 30° C. The following day the cells had reached an OD600 of ~1.0-2.0. The cells were pelleted and resuspended in 500 ml of minimal broth supplemented with 5 g/L ammonium sulfate. The cell suspension was placed in a 2.8 L baffled Bell flask and shaken vigorously at 30° C. for 6 hours. 50 ml of the culture was set aside in a 250-ml flask as a control, and to the remainder of the culture was added 1 mg nystatin to select for auxotrophic mutants (Snow, Nature 211:206-207, 1966). […]

C[C@@H]1[C@H](O)[C@@H](C)/C=C/C=C/CC/C=C/C=C/C=C/C=C/C(O[C@H]2O[C@H](C)[C@@H](O)[C@H](N)[C@@H]2O)CC2O[C@](O)(CC(O)C(O)CCC(O)CC(O)CC(O)CC(=O)O[C@H]1C)CC(O)C2C(=O)O (stereo partly shown) [nystatin]
decrease in the number of viable cells (factor): 10^4
